Experimental data: US9556179B2 (BRISTOL-MYERS SQUIBB COMPANY, priority 2012, dated 2017)

Columns and labels:
CK1δ = CK1δ (Homo sapiens (Human), UniProt P48730); experiment: CK1δ kinase assay (Caliper LABCHIP electrophoretic separation of fluoresceinated peptide substrate and product); assay type: biochemical; conditions: 200 pM enzyme, 50 μM ATP, 22 hours at room temperature
Method: (§1) CK1ε and CK1δ Kinase Assays
(§2) The kinase assay was performed in V-bottom 384-well plates. […] The reaction was incubated at room temperature for 22 hours and terminated by adding 45 μl of 35 mM EDTA to each sample. The reaction mixture was analyzed on the Caliper LABCHIP®3000 (Caliper, Hopkinton, Mass.) by electrophoretic separation of the unphosphorylated substrate and phosphorylated product. […] Compounds were dissolved at 10 mM in dimethylsulfoxide (DMSO) and evaluated at eleven concentrations. IC50 values were derived by non-linear regression analysis.

CK1ε = CK1ε (Homo sapiens (Human), UniProt P49674); experiment: CK1ε kinase assay (Caliper LABCHIP electrophoretic separation of fluoresceinated peptide substrate and product); assay type: biochemical; conditions: 200 pM enzyme, 50 μM ATP, 22 hours at room temperature
Method: as §1, §2

Chain of CK1ε (P49674 whole entry): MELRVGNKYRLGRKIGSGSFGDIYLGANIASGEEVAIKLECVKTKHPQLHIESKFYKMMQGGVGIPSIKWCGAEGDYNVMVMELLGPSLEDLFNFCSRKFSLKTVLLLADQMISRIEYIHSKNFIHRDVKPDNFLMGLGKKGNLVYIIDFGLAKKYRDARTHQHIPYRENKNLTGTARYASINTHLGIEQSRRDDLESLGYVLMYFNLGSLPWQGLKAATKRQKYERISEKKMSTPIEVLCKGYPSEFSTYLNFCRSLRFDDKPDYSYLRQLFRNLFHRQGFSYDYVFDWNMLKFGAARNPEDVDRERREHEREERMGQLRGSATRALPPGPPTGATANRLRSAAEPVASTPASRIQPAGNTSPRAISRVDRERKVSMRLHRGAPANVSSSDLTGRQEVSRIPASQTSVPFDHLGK
Chain of CK1δ (P48730 whole entry): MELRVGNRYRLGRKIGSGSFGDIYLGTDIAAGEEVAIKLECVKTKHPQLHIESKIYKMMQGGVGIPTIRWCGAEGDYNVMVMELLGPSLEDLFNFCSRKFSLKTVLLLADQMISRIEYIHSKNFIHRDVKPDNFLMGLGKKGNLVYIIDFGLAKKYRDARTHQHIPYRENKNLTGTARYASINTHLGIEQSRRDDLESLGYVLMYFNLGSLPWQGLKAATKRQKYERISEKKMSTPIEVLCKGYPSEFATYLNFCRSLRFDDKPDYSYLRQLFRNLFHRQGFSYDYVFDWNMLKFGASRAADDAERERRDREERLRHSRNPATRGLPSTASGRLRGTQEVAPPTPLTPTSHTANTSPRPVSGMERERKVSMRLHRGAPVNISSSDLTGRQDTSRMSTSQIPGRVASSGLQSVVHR

Row | IC50 (CK1δ) [nM] | IC50 (CK1ε) [nM] | SMILES
1 | 1.03 | 16 | COCCN1CCC(n2c(C)nc(-c3ccc(F)cc3)c2-c2ccc3nc(NC(=O)c4ccnc(F)c4)cn3n2)CC1 [Compound 141, 2-fluoro-N-(6-(4-(4-fluorophenyl)-1-(1-(2-methoxyethyl)piperidin-4-yl)-2-methyl-1H-imidazol-5-yl)imidazo [1,2-b]pyridazin-2-yl) isonicotinamide]
2 | 30.7 | 43.6 | O=C(Nc1cn2nc(-c3c(-c4ccc(F)cc4)nc4ccc(N5CCCC5)nn34)ccc2n1)c1ccncc1 [Compound 222, N-(2-(4-fluorophenyl)-6-(pyrrolidin-1-yl)-[3,6′-biimidazo[1,2-b]pyridazin]-2′-yl)isonicotinamide]
3 | 0.92 | 0.681 | O=C(Nc1cn2nc(-c3c(-c4ccc(F)cc4)ncn3C3CCNCC3)ccc2n1)c1ccnc(F)c1 [Compound 9, 2-fluoro-N-(6-(4-(4-fluorophenyl)-1-(piperidin-4-yl)-1H-imidazol-5-yl)imidazo[1,2-b]pyridazin-2-yl)isonicotinamide]
4 | 6.19 | 60 | Cc1nc(-c2ccc(F)cc2)c(-c2ccc3nc(NC(=O)c4cnoc4)cn3n2)n1C [Compound 378, N-(6-(4-(4-fluorophenyl)-1,2-dimethyl-1H-imidazol-5-yl)imidazo[1,2-b]pyridazin-2-yl)-4-isoxazolecarboxamide]
5 | 1.41 | 4.89 | Cc1nc(-c2ccc(F)cc2)c(-c2ccc3nc(NC(=O)c4c[nH]c5ccccc45)cn3n2)n1C [Compound 342, N-(6-(4-(4-fluorophenyl)-1,2-dimethyl-1H-imidazol-5-yl)imidazo[1,2-b]pyridazin-2-yl)-1H-indole-3-carboxamide]
6 | 0.22 | 1.45 | O=C(Nc1cn2nc(-c3c(-c4ccc(F)cc4)ncn3C3CCN(C(=O)c4ccno4)CC3)ccc2n1)c1ccnc(F)c1 [Compound 48, 2-fluoro-N-(6-(4-(4-fluorophenyl)-1-(1-(isoxazole-5-carbonyl)piperidin-4-yl)-1H-imidazol-5-yl)imidazo[1,2-b]pyridazin-2-yl)isonicotinamide]
7 | 0.379 | 1.19 | COc1cccc2[nH]c(C(=O)Nc3cn4nc(-c5c(-c6ccc(F)cc6)nc(C)n5C)ccc4n3)cc12 [Compound 347, N-(6-(4-(4-fluorophenyl)-1,2-dimethyl-1H-imidazol-5-yl)imidazo[1,2-b]pyridazin-2-yl)-4-methoxy-1H-indole-2-carboxamide]
8 | 0.3 | 3.7 | O=C(Nc1cn2nc(-c3c(-c4ccc(F)cc4)nc4n3CCNC4)ccc2n1)c1ccnc(N2CCOCC2)c1 [Compound 458, N-(6-(2-(4-Fluorophenyl)-5,6,7,8-tetrahydroimidazo[1,2-a]pyrazin-3-yl)imidazo[1,2-b]pyridazin-2-yl)-2-morpholinoisonicotinamide]
9 | 1.49 | 17.6 | Cc1nc(-c2ccc(F)cc2)c(-c2ccc3nc(NC(=O)c4cccn4C)cn3n2)n1C [Compound 357, N-(6-(4-(4-fluorophenyl)-1,2-dimethyl-1H-imidazol-5-yl)imidazo[1,2-b]pyridazin-2-yl)-1-methyl-1H-pyrrole-2-carboxamide]
10 | 2.68 | 12.3 | Cc1cc[nH]c1C(=O)Nc1cn2nc(-c3c(-c4ccc(F)cc4)nc(C)n3C)ccc2n1 [Compound 326, N-(6-(4-(4-fluorophenyl)-1,2-dimethyl-1H-imidazol-5-yl)imidazo[1,2-b]pyridazin-2-yl)-3-methyl-1H-pyrrole-2-carboxamide]
11 | 0.489 | 10.8 | NC(=O)CN1CCC(n2c(C3CC3)nc(-c3ccc(F)cc3)c2-c2ccc3nc(NC(=O)c4ccnc(F)c4)cn3n2)CC1 [Compound 121, N-(6-(1-(1-(2-amino-2-oxoethyl)piperidin-4-yl)-2-cyclopropyl-4-(4-fluorophenyl)-1H-imidazol-5-yl)imidazo [1,2-b]pyridazin-2-yl)-2-fluoroisonicotinamide]
12 | 1.21 | 8.71 | O=C(Nc1cn2nc(-c3c(-c4ccc(F)cc4)ncn3CC(F)F)ccc2n1)c1cnc(-c2ccncc2)s1 [Compound 415, N-(6-(1-(2,2-Difluoroethyl)-4-(4-fluorophenyl)-1H-imidazol-5-yl)imidazo[1,2-b]pyridazin-2-yl)-2-(pyridin-4-yl)thiazole-5-carboxamide]
13 | 60.7 | 178 | Cc1nc(-c2cccnc2)sc1C(=O)Nc1cn2nc(-c3c(-c4ccc(F)cc4)nc4ccccn34)ccc2n1 [Compound 218, N-(6-(2-(4-fluorophenyl)imidazo[1,2-a]pyridin-3-yl)imidazo[1,2-b]pyridazin-2-yl)-4-methyl-2-(pyridin-3-yl) thiazole-5-carboxamide]
14 | 0.5 | 8.5 | O=C(Nc1cn2nc(-c3c(-c4ccc(F)cc4)nc4n3CCNC4)ccc2n1)c1cc(F)nc(F)c1 [Compound 457, 2,6-Difluoro-N-(6-(2-(4-fluorophenyl)-5,6,7,8-tetrahydroimidazo[1,2-a]pyrazin-3-yl)imidazo[1,2-b]pyridazin-2-yl)isonicotinamide]
15 | 2.14 | 21.8 | O=C(Nc1cn2nc(-c3c(-c4ccc(F)cc4)ncn3C3CCN(Cc4cocn4)CC3)ccc2n1)c1ccnc(F)c1 [Compound 17, 2-fluoro-N-(6-(4-(4-fluorophenyl)-1-(1-(oxazol-4-ylmethyl)piperidin-4-yl)-1H-imidazol-5-yl)imidazo[1,2-b]pyridazin-2-yl)isonicotinamide]
16 | 0.691 | 1.89 | Cc1nc(-c2ccc(F)cc2)c(-c2ccc3nc(NC(=O)c4ccc5ccncc5c4)cn3n2)n1C [Compound 313, N-(6-(4-(4-fluorophenyl)-1,2-dimethyl-1H-imidazol-5-yl)imidazo[1,2-b]pyridazin-2-yl)isoquinoline-7-carbox-amide]
17 | 0.206 | 2.93 | Cc1cc(C(=O)Nc2cn3nc(-c4c(-c5ccc(F)cc5)nc5ccccn45)ccc3n2)on1 [Compound 179, N-(6-(2-(4-fluorophenyl)imidazo[1,2-a]pyridin-3-yl)imidazo[1,2-b]pyridazin-2-yl)-3-methyl-5-isoxazolecarboxamide]
18 | 0.257 | 1.01 | CCCn1cnc(-c2ccc(F)cc2)c1-c1ccc2nc(NC(=O)C(C)(C)C)cn2n1 [Compound 273, N-(6-(4-(4-Fluorophenyl)-1-propyl-1H-imidazol-5-yl)imidazo[1,2-b]pyridazin-2-yl)pivalamide]
19 | 7.53 | 77.2 | O=C(Nc1cn2nc(-c3c(-c4ccc(F)cc4)nc4ccccn34)ccc2n1)c1nc2ccccc2s1 [Compound 184, N-(6-(2-(4-fluorophenyl)imidazo[1,2-a]pyridin-3-yl)imidazo[1,2-b]pyridazin-2-yl)-1,3-benzothiazole-2-carboxamide]
20 | 0.9 | 7 | O=C(Nc1cn2nc(-c3c(-c4ccc(F)cc4)nc4n3CCNC4)ccc2n1)c1ccncc1 [Compound 456, N-(6-(2-(4-Fluorophenyl)-5,6,7,8-tetrahydroimidazo[1,2-a]pyrazin-3-yl)imidazo[1,2-b]pyridazin-2-yl)isonicotinamide]
21 | 0.452 | 3.38 | O=C(Nc1cn2nc(-c3c(-c4ccc(F)cc4)ncn3CCO)ccc2n1)c1ccnc(F)c1 [Compound 230, 2-fluoro-N-(6-(4-(4-fluorophenyl)-1-(2-hydroxyethyl)-1H-imidazol-5-yl)imidazo[1,2-b]pyridazin-2-yl)isonicotinamide]
22 | 0.376 | 1.91 | CC(C)COC(=O)N1CCC(n2cnc(-c3ccc(F)cc3)c2-c2ccc3nc(NC(=O)c4ccnc(F)c4)cn3n2)CC1 [Compound 79, isobutyl 4-(5-(2-(2-fluoroisonicotinamido)imidazo[1,2-b]pyridazin-6-yl)-4-(4-fluorophenyl)-1H-imidazol-1-yl)piperidine-1-carboxylate]
23 | 0.175 | 0.424 | O=C(Nc1cn2nc(-c3c(-c4ccc(F)cc4)ncn3C3CCN(C(=O)CC(F)(F)F)CC3)ccc2n1)c1cncs1 [Compound 117, N-(6-(4-(4-fluorophenyl)-1-(1-(3,3,3-trifluoropropanoyl)piperidin-4-yl)-1H-imidazol-5-yl)imidazo[1,2-b]pyridazin-2-yl)thiazole-5-carboxamide]
24 | 0.085 | 0.984 | NCC(=O)N1CCC(n2cnc(-c3ccc(F)cc3)c2-c2ccc3nc(NC(=O)c4ccnc(F)c4)cn3n2)CC1 [Compound 40, N-(6-(1-(1-(2-aminoacetyl)piperidin-4-yl)-4-(4-fluorophenyl)-1H-imidazol-5-yl)imidazo[1,2-b]pyridazin-2-yl)-2-fluoroisonicotinamide]
25 | 0.116 | – | O=C(Nc1cn2nc(-c3c(-c4ccc(F)cc4)ncn3C3CCN(C(=O)C4CC(F)(F)C4)CC3)ccc2n1)c1ccnc(F)c1 [Compound 67, N-(6-(1-(1-(3,3-difluorocyclobutanecarbonyl)piperidin-4-yl)-4-(4-fluorophenyl)-1H-imidazol-5-yl)imidazo[1,2-b]pyridazin-2-yl)-2-fluoroisonicotinamide]
26 | 3.8 | – | O=C(Nc1cn2nc(-c3c(-c4ccc(F)cc4)nc4ccccn34)ccc2n1)C1CC1 [Compound 185, N-(6-(2-(4-fluorophenyl)imidazo[1,2-a]pyridin-3-yl)imidazo[1,2-b]pyridazin-2-yl)cyclopropanecarboxamide]
27 | 0.532 | – | CN1CCC(CN2CCC(n3cnc(-c4ccc(F)cc4)c3-c3ccc4nc(NC(=O)c5ccnc(F)c5)cn4n3)CC2)CC1 [Compound 25, 2-fluoro-N-(6-(4-(4-fluorophenyl)-1-(1-((1-methylpiperidin-4-yl)methyl)piperidin-4-yl)-1H-imidazol-5-yl)imidazo[1,2-6]pyridazin-2-yl)isonicotinamide]
28 | 0.611 | – | O=C(Nc1cn2nc(-c3c(-c4ccc(F)cc4)ncn3C3CCN(CC4CCOCC4)CC3)ccc2n1)c1ccnc(F)c1 [Compound 19]
